Patent publication US20070117743A1, “New antitumoral compounds” (priority 2003, published 2007)
Where a SMILES comes first, the peptide text is derived from it. Bridges are numbered along the chain shown (N, C = ends). [ ]: non-standard residue; d: D form. The star is where a group is joined. d(aIle) = CC[C@H](C)[C@@H](N)C(=O)O; d(aThr) = C[C@@H](O)[C@@H](N)C(=O)O; Hexanoyl(5-Me) = CC(C)CCCC(=O)*; Orn = NCCC[C@H](N)C(=O)O; Dhb = C/C=C(\N)C(=O)O

Tests used:
Type in all cases: cell-based, human
IGROV-1 = assay: SRB colorimetric assay of cell growth and viability, IGROV-1; conditions: 48 hours exposure
IGROV-ET = assay: SRB colorimetric assay of cell growth and viability, IGROV-ET; conditions: 48 hours exposure; for CC50: read-out: LC50 IGROV-ET
A-549 = assay: SRB colorimetric assay of cell growth and viability, A-549; conditions: 48 hours exposure; for GI50: read-out: GI50 A-549; for CC50: read-out: LC50 A-549
LNCaP = assay: SRB colorimetric assay of cell growth and viability, LNCaP; conditions: 48 hours exposure; for GI50: read-out: GI50 LN-caP; for CC50: read-out: LC50 LN-caP
LoVo = assay: SRB colorimetric assay of cell growth and viability, LoVo; conditions: 48 hours exposure; for CC50: read-out: LC50 LOVO
K-562 = assay: SRB colorimetric assay of cell growth and viability, K-562; conditions: 48 hours exposure; for CC50: read-out: LC50 K-562
HT-29 = assay: SRB colorimetric assay of cell growth and viability, HT-29; conditions: 48 hours exposure; for GI50: read-out: GI50 HT-29; for CC50: read-out: LC50 HT-29
SK-OV-3 = assay: SRB colorimetric assay of cell growth and viability, SK-OV-3; conditions: 48 hours exposure; for GI50: read-out: GI50 SKOV-3; for CC50: read-out: LC50 SKOV-3
Excerpt: The finality of this assay is to interrupt the growth of a “in vitro” tumor cell culture by means a continued exhibition of the cells to the sample to be testing.
A colorimetric type of assay, using sulforhodamine B (SRB) reaction has been adapted for a quantitative measurement of cell growth and viability [following the technique described by Philip Skehan, et al. (1990), New colorimetric cytotoxicity assay for anticancer drug screening, J. Natl. Cancer Inst., 82:1107-1112].
This form of the assay employs 96 well cell culture microplates of 9 mm diameter (Faircloth, 1988; Mosmann, 1983). Most of the cell lines are obtained from American Type Culture Collection (ATCC) derived from different human cancer types.
Cells are maintained in RPMI 1640 10% FBS, supplemented with 0.1 g/l penicillin and 0.1 g/l streptomycin sulfate and then incubated at 37° C., 5% CO2 and 98% humidity. For the experiments, cells were harvested from subconfluent cultures using trypsin and resuspended in fresh medium before plating.
Cells are seeded in 96 well microtiter plates, at 5×10^3 cells per well in aliquots of 195 μL medium, and they are allowed to attach to the plate surface by growing in drug free medium for 18 hours. Afterward, samples are added in aliquots of 5 μL in a ranging from 10 to 10^−8 μg/mL, dissolved in DMSO:EtOH:PBS (0.5:0.5:99). After 48 hours exposure, the antitumor effect are measured by the SRB methodology: cells are fixed by adding 50 μL of cold 50% (wt/vol) trichloroacetic acid (TCA) and incubating for 60 minutes at 4° C. Plates are washed with deionized water and dried. One hundred μL of SRB solution (0.4% wt/vol in 1% acetic acid) is added to each microtiter well and incubated for 10 minutes at room temperature. Unbound SRB is removed by washing with 1% acetic acid. Plates are air dried and bound stain is solubilized with Tris buffer. Optical densities are read on a automated spectrophotometric plate reader at a single wavelength of 490 nm.
The values for mean+/− SD of data from triplicate wells are calculated. Some parameters for cellular responses can be calculated: GI=growth inhibition, TGI=total growth inhibition (cytostatic effect) and LC=cell killing (cytotoxic effect).

DU-145 = assay: SRB colorimetric assay of cell growth and viability, DU-145; conditions: 48 hours exposure
PANC-1 = assay: SRB colorimetric assay of cell growth and viability, PANC-1; conditions: 48 hours exposure; for CC50: read-out: LC50 PANC-1
SK-MEL-28 = assay: SRB colorimetric assay of cell growth and viability, SK-MEL-28; conditions: 48 hours exposure; for CC50: read-out: LC50 MEL-28
LoVo-Dox = assay: SRB colorimetric assay of cell growth and viability, LoVo-Dox; conditions: 48 hours exposure; for CC50: read-out: LC50 LOVO-DOX
Summary of the method: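 Human tumor cells seeded at 5×10^3/well in RPMI 1640 10% FBS, attached 18 hours, then exposed 48 hours to compound (10 to 10^−8 μg/mL). TCA-fixed, SRB-stained, OD 490 nm; triplicates give GI, TGI and LC values.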

Row | SMILES | GI50 (IGROV-1) [µM] | LC50 (concentration causing 50% net cell killing) (IGROV-1) [µM] | TGI IGROV (IGROV-1) [Molar] | GI50 (IGROV-ET) [µM] | TGI IGROV-ET (IGROV-ET) [Molar] | CC50 (IGROV-ET) [µM] | TGI A-549 (A-549) [Molar] | GI50 (A-549) [µM] | CC50 (A-549) [µM] | TGI LN-caP (LNCaP) [Molar] | GI50 (LNCaP) [µM] | CC50 (LNCaP) [µM] | GI50 (LoVo) [µM] | TGI LOVO (LoVo) [Molar] | CC50 (LoVo) [µM] | GI50 (K-562) [µM] | TGI K-562 (K-562) [Molar] | CC50 (K-562) [µM] | TGI HT-29 (HT-29) [Molar] | GI50 (HT-29) [µM] | further results
1 | C/C=C1\NC(=O)[C@H](Cc2ccccc2)NC(=O)[C@@H](C(C)C)NC(=O)[C@@H]([C@@H](C)CC)NC(=O)[C@H](NC(=O)[C@H](NC(=O)[C@H](CCC(=O)O)NC(=O)[C@H]2CCCN2C(=O)[C@H](NC(=O)[C@@H](NC(=O)[C@@H](NC(=O)[C@H](NC(=O)CCCC(C)C)C(C)C)[C@@H](C)O)C(C)C)C(C)C)[C@@H](C)CC)[C@@H](C)OC(=O)[C@H](C(C)C)NC1=O [Compound 4, [Glu^8]-KF] ({Hexanoyl(5-Me)}-[dV]TV[dV][dP]E[d(aIle)][d(aThr)][d(aIle)][dV]F[Dhb]V; ester 8-C) | 0.49 | 3.31 | 1.29E−06 | 0.817 | 1.69E−06 | 3.52 | 4.02E−06 | 1.77 | 6.7 | 1.19E−06 | 0.371 | 3.62 | 0.348 | 6.45E−07 | 2.65 | 2.11 | 5.10E−06 | 6.7 | 2.00E−06 | 0.884 | CC50 (HT-29): 4.55 µM; TGI SKOV-3 (SK-OV-3): 5.85E−07 Molar; GI50 (SK-OV-3): 0.195 µM; CC50 (SK-OV-3): 2.26 µM; GI50 (DU-145): 1.03 µM; LC50 (concentration causing 50% net cell kill) (DU-145): 3.88 µM; TGI DU-145 (DU-145): 2.00E−06 Molar; GI50 (PANC-1): 1.82 µM; TGI PANC-1 (PANC-1): 3.46E−06 Molar; CC50 (PANC-1): 6.6 µM; GI50 (SK-MEL-28): 2.95 µM; TGI MEL-28 (SK-MEL-28): 6.70E−06 Molar; CC50 (SK-MEL-28): 6.7 µM; GI50 (LoVo-Dox): 0.757 µM; TGI LOVO-DOX (LoVo-Dox): 1.77E−06 Molar; CC50 (LoVo-Dox): 4.15 µM
2 | C/C=C1\NC(=O)[C@H](Cc2ccccc2)NC(=O)[C@@H](C(C)C)NC(=O)[C@@H]([C@@H](C)CC)NC(=O)[C@H](NC(=O)[C@H](NC(=O)[C@H](CCCN)NC(=O)[C@H]2CCCN2C(=O)[C@H](NC(=O)[C@@H](NC(=O)[C@@H](NC(=O)[C@H](NC(=O)Cc2ccc(C(F)(F)F)cc2)C(C)C)[C@@H](C)O)C(C)C)C(C)C)[C@@H](C)CC)[C@@H](C)OC(=O)[C@H](C(C)C)NC1=O [Compound 25, [p-CF3PhAc^14]-KF] | 0.252 | 1.96 | 4.54E−07 | 0.2 | 3.23E−07 | 0.521 | 9.67E−07 | 0.297 | 3.24 | 1.19E−06 | 0.32 | 3.66 | 0.203 | 4.59E−07 | 1.61 | 1.42 | 3.06E−06 | 6.44 | 1.41E−06 | 0.555 | CC50 (HT-29): 3.32 µM; TGI SKOV-3 (SK-OV-3): 3.29E−07 Molar; GI50 (SK-OV-3): 0.126 µM; CC50 (SK-OV-3): 1.13 µM; GI50 (DU-145): 0.251 µM; LC50 (concentration causing 50% net cell kill) (DU-145): 2.38 µM; TGI DU-145 (DU-145): 7.86E−07 Molar; GI50 (PANC-1): 1.58 µM; TGI PANC-1 (PANC-1): 3.07E−06 Molar; CC50 (PANC-1): 5.96 µM; GI50 (SK-MEL-28): 1.4 µM; TGI MEL-28 (SK-MEL-28): 2.14E−05 Molar; CC50 (SK-MEL-28): 4.06 µM; GI50 (LoVo-Dox): 0.176 µM; TGI LOVO-DOX (LoVo-Dox): 3.92E−07 Molar; CC50 (LoVo-Dox): 1.43 µM
3 | C/C=C1\NC(=O)[C@H](Cc2ccccc2)NC(=O)[C@@H](C(C)C)NC(=O)[C@@H]([C@@H](C)CC)NC(=O)[C@H](NC(=O)[C@H](NC(=O)[C@H](CCCN)NC(=O)[C@H]2CCCN2C(=O)[C@H](NC(=O)[C@@H](NC(=O)[C@@H](NC(=O)[C@H](NC(=O)CCCCC(C)(F)F)C(C)C)[C@@H](C)O)C(C)C)C(C)C)[C@@H](C)CC)[C@@H](C)OC(=O)[C@H](C(C)C)NC1=O [Compound 28, [6,6-dFHep^14]-KF] | 0.334 | 2.55 | 7.86E−07 | 0.228 | 3.59E−07 | 0.568 | 1.04E−06 | 0.328 | 4.25 | 1.09E−06 | 0.363 | 3.1 | 0.196 | 3.70E−07 | 0.872 | 1.88 | 2.99E−04 | 4.75 | 1.54E−06 | 0.649 | CC50 (HT-29): 3.63 µM; TGI SKOV-3 (SK-OV-3): 3.36E−07 Molar; GI50 (SK-OV-3): 0.145 µM; CC50 (SK-OV-3): 1.01 µM; GI50 (DU-145): 0.215 µM; LC50 (concentration causing 50% net cell kill) (DU-145): 2.09 µM; TGI DU-145 (DU-145): 5.59E−07 Molar; GI50 (PANC-1): 1.48 µM; TGI PANC-1 (PANC-1): 2.52E−06 Molar; CC50 (PANC-1): 4.3 µM; GI50 (SK-MEL-28): 1.47 µM; TGI MEL-28 (SK-MEL-28): 2.55E−06 Molar; CC50 (SK-MEL-28): 4.41 µM; GI50 (LoVo-Dox): 0.172 µM; TGI LOVO-DOX (LoVo-Dox): 3.18E−07 Molar
4 | C/C=C1\NC(=O)[C@H](Cc2ccccc2)NC(=O)[C@@H](C(C)C)NC(=O)[C@@H]([C@@H](C)CC)NC(=O)[C@H](NC(=O)[C@H](NC(=O)[C@H](CCCN)NC(=O)[C@H]2CCCN2C(=O)[C@H](NC(=O)CCCC(C)C)C(C)C)[C@@H](C)CC)[C@@H](C)OC(=O)[C@H](C(C)C)NC1=O [Compound 31, [noVal^11, noThr^12, noD-Val^13]-KF] ({Hexanoyl(5-Me)}-[dV][dP][Orn][d(aIle)][d(aThr)][d(aIle)][dV]F[Dhb]V; ester 5-C) | 2.69 | 6.25 | 4.10E−06 | 2.69 | 4.07E−06 | 6.18 | 8.49E−06 | 5.91 | 8.49 | 3.79E−06 | 1.94 | 7.39 | 8.49 | 8.49E−06 | 8.49 | 2.21 | 4.26E−06 | 8.18 | 8.49E−06 | 8.49 | CC50 (HT-29): 8.49 µM; TGI SKOV-3 (SK-OV-3): 5.03E−06 Molar; GI50 (SK-OV-3): 2.21 µM; CC50 (SK-OV-3): 8.49 µM; GI50 (DU-145): 3.3 µM; LC50 (concentration causing 50% net cell kill) (DU-145): 8.49 µM; TGI DU-145 (DU-145): 6.37E−06 Molar; GI50 (PANC-1): 2.12 µM; TGI PANC-1 (PANC-1): 3.63E−06 Molar; CC50 (PANC-1): 6.23 µM; GI50 (SK-MEL-28): 4.21 µM; TGI MEL-28 (SK-MEL-28): 8.49E−06 Molar; CC50 (SK-MEL-28): 8.49 µM; GI50 (LoVo-Dox): 2.38 µM; TGI LOVO-DOX (LoVo-Dox): 4.00E−06 Molar; CC50 (LoVo-Dox): ≥ 6.75 µM
